Measurements: patent publication US6914045B2, “Glycopeptide antibiotics” (Wyeth Holdings Corporation, priority 2001, dated 2005)
≈ marks a conversion by molar mass, not a printed value. Where two headings read alike, the source gives them in different places. Each block holds one compound with its values, some of them ahead of it.

Legend:
Test in all cases: in vitro antibacterial evaluation, MIC by broth dilution
Type in all cases: cell-based
[1] = system: Escherichia coli
Outline: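 Broth dilution in Muller-Hinton II medium per NCCLS standard M7-A2, with an inoculum of 5×10^5 CFU/mL and antibiotic tested over 64-0.06 μg/mL. MIC was taken as the lowest concentration inhibiting visible growth.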

[2] = system: Streptococcus sp.
Experimental: (§1) Methods for in vitro Antibacterial Evaluation (Table 1)
(§2) The minimum inhibitory concentration (MIC), the lowest concentration of the antibiotic which inhibits growth of the test organism, is determined by the broth dilution method using Muller-Hinton II […] (Baltimore Biological Laboratories) following the recommendations of the National Committee for Clinical Laboratory Standards [Methods for dilution antimicrobial susceptibility tests for bacteria that grow aerobically, approved standard M7-A2, National Committee for Clinical Laboratory Standards, Villanova, Pa.].
(§3) An inoculum level of 5×10^5 CFU/mL, and a range of antibiotic concentrations (64-0.06 μg/mL) is used. […] The test organisms include a spectrum of Gram-positive bacteria comprised of Staphylococcus sp., Streptococcus sp. and Enterococcus sp. These organisms include recent clinical isolates that are resistant to methicillin, penicillin and/or vancomycin.

[3] = system: Staphylococcus sp.
Experimental: as §1, §2, §3

[4] = system: Enterococcus sp.
Experimental: as §1, §2, §3

MIC Escherichia coli (ATCC 25922) ([1]; strain ATCC 25922, broth dilution, 18 hours at 35° C.): 128 µg/mL (≈ 109 µM) | MIC Escherichia coli (GC 4559) ([1]; strain GC 4559, broth dilution, 18 hours at 35° C.): 128 µg/mL (≈ 109 µM) | MIC Escherichia coli (GC 4560) ([1]; strain GC 4560, broth dilution, 18 hours at 35° C.): 16 µg/mL (≈ 13.6 µM) | MIC Streptococcus pneumoniae (ATCC 6301) ([2]; strain ATCC 6301, broth dilution, 18 hours at 35° C.): 8 µg/mL (≈ 6.81 µM) | MIC Streptococcus pneumoniae (GC 1894) ([2]; strain GC 1894, broth dilution, 18 hours at 35° C.): 8 µg/mL (≈ 6.81 µM) | MIC Streptococcus pyogenes (GC 4563) ([2]; strain GC 4563, broth dilution, 18 hours at 35° C.): 4 µg/mL (≈ 3.41 µM) | MIC Streptococcus agalactiae (GC 4564) ([2]; strain GC 4564, broth dilution, 18 hours at 35° C.): 16 µg/mL (≈ 13.6 µM) | MIC Streptococcus pneumoniae (GC 4565) ([2]; strain GC 4565, broth dilution, 18 hours at 35° C.): 16 µg/mL (≈ 13.6 µM) | MIC Staphylococcus aureus (ATCC 29213) ([3]; strain ATCC 29213, broth dilution, 18 hours at 35° C.): 16 µg/mL (≈ 13.6 µM) | MIC Staphylococcus aureus (GC 1131) ([3]; strain GC 1131, broth dilution, 18 hours at 35° C.): 16 µg/mL (≈ 13.6 µM) | MIC Staphylococcus aureus (GC 3051) ([3]; strain GC 3051, broth dilution, 18 hours at 35° C.): 16 µg/mL (≈ 13.6 µM) | MIC Staphylococcus aureus (GC 3053) ([3]; strain GC 3053, broth dilution, 18 hours at 35° C.): 8 µg/mL (≈ 6.81 µM) | MIC Staphylococcus aureus (GC 4541) ([3]; strain GC 4541, broth dilution, 18 hours at 35° C.): 16 µg/mL (≈ 13.6 µM) | MIC Staphylococcus aureus (GC 4542) ([3]; strain GC 4542, broth dilution, 18 hours at 35° C.): 16 µg/mL (≈ 13.6 µM) | MIC Staphylococcus aureus-SMITH (GC 4543) ([3]; strain GC 4543, broth dilution, 18 hours at 35° C.): 16 µg/mL (≈ 13.6 µM) | MIC Staphylococcus aureus (GC 4544) ([3]; strain GC 4544, broth dilution, 18 hours at 35° C.): 16 µg/mL (≈ 13.6 µM) | MIC Staphylococcus aureus (GC 4545) ([3]; strain GC 4545, broth dilution, 18 hours at 35° C.): 16 µg/mL (≈ 13.6 µM) | MIC Coagulase Negative Staphylococcus (GC 4547) ([3]; strain GC 4547, broth dilution, 18 hours at 35° C.): 8 µg/mL (≈ 6.81 µM) | MIC Coagulase Negative Staphylococcus (GC 4548) ([3]; strain GC 4548, broth dilution, 18 hours at 35° C.): 8 µg/mL (≈ 6.81 µM) | MIC Coagulase Negative Staphylococcus (GC 4549) ([3]; strain GC 4549, broth dilution, 18 hours at 35° C.): 4 µg/mL (≈ 3.41 µM) | MIC Coagulase Negative Staphylococcus (GC 4551) ([3]; strain GC 4551, broth dilution, 18 hours at 35° C.): 8 µg/mL (≈ 6.81 µM) | MIC Coagulase Negative Staphylococcus (GC 6257) ([3]; strain GC 6257, broth dilution, 18 hours at 35° C.): 4 µg/mL (≈ 3.41 µM) | MIC Enterococcus faecalis (ATCC 29212) ([4]; strain ATCC 29212, broth dilution, 18 hours at 35° C.): 16 µg/mL (≈ 13.6 µM) | MIC Enterococcus faecalis (GC 2242) ([4]; strain GC 2242, broth dilution, 18 hours at 35° C.): 16 µg/mL (≈ 13.6 µM) | MIC Enterococcus faecium (GC 2243) ([4]; strain GC 2243, broth dilution, 18 hours at 35° C.): 8 µg/mL (≈ 6.81 µM) | MIC Enterococcus faecalis (GC 2691) ([4]; strain GC 2691, broth dilution, 18 hours at 35° C.): 16 µg/mL (≈ 13.6 µM) | MIC Enterococcus faecalis (GC 3059) ([4]; strain GC 3059, broth dilution, 18 hours at 35° C.): 16 µg/mL (≈ 13.6 µM) | MIC Enterococcus faecalis (GC 4552) ([4]; strain GC 4552, broth dilution, 18 hours at 35° C.): 16 µg/mL (≈ 13.6 µM) | MIC Enterococcus faecalis (GC 4553) ([4]; strain GC 4553, broth dilution, 18 hours at 35° C.): 8 µg/mL (≈ 6.81 µM) | MIC Enterococcus faecalis (GC 4554) ([4]; strain GC 4554, broth dilution, 18 hours at 35° C.): 32 µg/mL (≈ 27.3 µM) | MIC Enterococcus faecium (GC 4556) ([4]; strain GC 4556, broth dilution, 18 hours at 35° C.): 32 µg/mL (≈ 27.3 µM) | MIC Enterococcus faecium (GC 4557) ([4]; strain GC 4557, broth dilution, 18 hours at 35° C.): 8 µg/mL (≈ 6.81 µM) | MIC Enterococcus avium (GC 4558) ([4]; strain GC 4558, broth dilution, 18 hours at 35° C.): 8 µg/mL (≈ 6.81 µM) | MIC Enterococcus faecalis (GC 6189) ([4]; strain GC 6189, broth dilution, 18 hours at 35° C.): 16 µg/mL (≈ 13.6 µM)
Structure (SMILES): CC(c1ccccc1)C1NC(=O)CNC(=O)C(CO)NC(=O)C(C(O)C2CNC(=N)N2C2OC(CO)C(O)C(O)C2O)NC(=O)C(C(O)C2CNC(=N)N2)NC(=O)C(Cc2ccc3oc(C=C(c4ccccc4)c4ccccc4)nc3c2)NC1=O (stereo not drawn) [Example 39, Cyclo[3-[2-(2,2-diphenylethenyl)-1,3-benzoxazol-5-yl]alanyl-3-(2-iminoimidazolidin-4-yl)seryl-3-(3-hexopyranosyl-2-iminoimidazolidin-4-yl)serylserylglycyl-β-methylphenylalanyl]]
MIC Staphylococcus haemolyticus (GC 4546) ([3]; strain GC 4546, broth dilution, 18 hours at 35° C.): 8 µg/mL (≈ 6.81 µM)

Structure (SMILES): CC(C)=Cc1nc2cc(CC3NC(=O)C(C(C)c4ccccc4)NC(=O)CNC(=O)C(CO)NC(=O)C(C(O)C4CNC(=N)N4C4OC(CO)C(O)C(O)C4O)NC(=O)C(C(O)C4CNC(=N)N4)NC3=O)ccc2o1 (stereo not drawn) [Example 40, Cyclo[3-[2-(2-methylprop-1-en-1-yl)-1,3-benzoxazol-5-yl]alanyl-3-(2-iminoimidazolidin-4-yl)seryl-3-(3-hexopyranosyl-2-iminoimidazolidin-4-yl)serylserylglycyl-β-methylphenyl-alanyl]]
MIC Escherichia coli (ATCC 25922) [1]: 32 µg/mL (≈ 30.5 µM) | MIC Escherichia coli (GC 4559) [1]: 32 µg/mL (≈ 30.5 µM) | MIC Escherichia coli (GC 4560) [1]: 16 µg/mL (≈ 15.2 µM) | MIC Streptococcus agalactiae (GC 4564) [2]: 64 µg/mL (≈ 60.9 µM) | MIC Streptococcus pneumoniae (ATCC 6301) [2]: 64 µg/mL (≈ 60.9 µM) | MIC Streptococcus pneumoniae (GC 1894) [2]: 32 µg/mL (≈ 30.5 µM) | MIC Streptococcus pneumoniae (GC 4565) [2]: 128 µg/mL (≈ 122 µM) | MIC Streptococcus pyogenes (GC 4563) [2]: 32 µg/mL (≈ 30.5 µM) | MIC Coagulase Negative Staphylococcus (GC 4547) [3]: 16 µg/mL (≈ 15.2 µM) | MIC Coagulase Negative Staphylococcus (GC 4548) [3]: 32 µg/mL (≈ 30.5 µM) | MIC Coagulase Negative Staphylococcus (GC 4549) [3]: 16 µg/mL (≈ 15.2 µM) | MIC Coagulase Negative Staphylococcus (GC 4551) [3]: 32 µg/mL (≈ 30.5 µM) | MIC Coagulase Negative Staphylococcus (GC 6257) [3]: 16 µg/mL (≈ 15.2 µM) | MIC Staphylococcus aureus (ATCC 29213) [3]: 64 µg/mL (≈ 60.9 µM) | MIC Staphylococcus aureus (GC 1131) [3]: 64 µg/mL (≈ 60.9 µM) | MIC Staphylococcus aureus (GC 3051) [3]: 64 µg/mL (≈ 60.9 µM) | MIC Staphylococcus aureus (GC 3053) [3]: 64 µg/mL (≈ 60.9 µM) | MIC Staphylococcus aureus (GC 4541) [3]: 64 µg/mL (≈ 60.9 µM) | MIC Staphylococcus aureus (GC 4542) [3]: 64 µg/mL (≈ 60.9 µM) | MIC Staphylococcus aureus (GC 4544) [3]: 32 µg/mL (≈ 30.5 µM) | MIC Staphylococcus aureus (GC 4545) [3]: 32 µg/mL (≈ 30.5 µM) | MIC Staphylococcus aureus-SMITH (GC 4543) [3]: 64 µg/mL (≈ 60.9 µM) | MIC Staphylococcus haemolyticus (GC 4546) [3]: 16 µg/mL (≈ 15.2 µM) | MIC Enterococcus avium (GC 4558) [4]: 64 µg/mL (≈ 60.9 µM) | MIC Enterococcus faecalis (ATCC 29212) [4]: 128 µg/mL (≈ 122 µM) | MIC Enterococcus faecalis (GC 2242) [4]: 128 µg/mL (≈ 122 µM) | MIC Enterococcus faecalis (GC 2691) [4]: 128 µg/mL (≈ 122 µM) | MIC Enterococcus faecalis (GC 3059) [4]: >128 µg/mL | MIC Enterococcus faecalis (GC 4552) [4]: >128 µg/mL | MIC Enterococcus faecalis (GC 4553) [4]: 64 µg/mL (≈ 60.9 µM) | MIC Enterococcus faecalis (GC 4554) [4]: >128 µg/mL | MIC Enterococcus faecalis (GC 6189) [4]: 128 µg/mL (≈ 122 µM) | MIC Enterococcus faecium (GC 2243) [4]: 64 µg/mL (≈ 60.9 µM) | MIC Enterococcus faecium (GC 4556) [4]: 128 µg/mL (≈ 122 µM) | MIC Enterococcus faecium (GC 4557) [4]: 16 µg/mL (≈ 15.2 µM)
